Reference: US20260000698A1 (priority 2022, published 2026)

Assays:
Assay type in all cases: biochemical
PRMT1 = target: T1, PRMT1 (Homo sapiens, UniProt Q99873); test: Human MTase screening: PRMT1
T1 construct: purchased BPS Bioscience
Method: (§1) Assay conditions. The human methyltransferase inhibition assays were performed at BPS Bioscience (San Diego, CA, USA). All of the enzymatic reactions were conducted in duplicate at room temperature for 60-960 min in a 50 μL mixture containing proper methyltransferase assay buffer, S-adenosylmethionine (SAM), enzyme, and the test compound. These 50 μL reactions were carried out in wells of a substrate pre-coated plate. First, enzyme and inhibitor were added to assay wells and preincubated for 30 min at room temperature, then SAM was added to start the reaction. Final DMSO concentration was 1% in all reactions.
(§2) After enzymatic reactions, the reaction mixtures were discarded and each of the wells was washed three times with TBST buffer, and slowly shaken with Blocking Buffer for 10 min. Wells were emptied, and 100 μL of diluted primary antibody was added. The plate was then slowly shaken for 60 minutes at room temperature. […] Immediately, the luminescence of the samples was measured in a BioTek Synergy™ 2 (Winooski, VT, USA) microplate reader using Gen5 software.
(§3) Data analysis. […] The luminescence data/alpha counts were analyzed and compared. […] The percent activity in the presence of each compound was calculated according to the following equation: % activity=(C−C0)/(Ce−C0), where C=the luminescence/alpha counts in the presence of the compound.

SUV39H1 = target: T2, SUV39H1 (Homo sapiens, UniProt O43463); test: Human MTase screening: SUV39H1
T2 construct: purchased BPS Bioscience
T2 sequence (O43463 1-412): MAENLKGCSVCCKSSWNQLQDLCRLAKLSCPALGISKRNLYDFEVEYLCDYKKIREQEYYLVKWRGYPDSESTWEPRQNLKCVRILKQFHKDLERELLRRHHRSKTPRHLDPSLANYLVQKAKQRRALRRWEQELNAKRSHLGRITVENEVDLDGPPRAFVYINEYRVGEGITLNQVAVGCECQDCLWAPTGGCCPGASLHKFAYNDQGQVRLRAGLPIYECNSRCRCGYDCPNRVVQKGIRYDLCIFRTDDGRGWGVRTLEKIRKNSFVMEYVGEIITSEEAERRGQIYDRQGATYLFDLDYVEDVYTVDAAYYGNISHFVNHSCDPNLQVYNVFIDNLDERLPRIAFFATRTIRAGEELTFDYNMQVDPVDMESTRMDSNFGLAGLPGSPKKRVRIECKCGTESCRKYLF
Method: as §1, §2, §3

G9a = target: T3, G9a (Homo sapiens, UniProt Q96KQ7); test: Human MTase screening: G9a
T3 construct: purchased BPS Bioscience
T3 sequence (Q96KQ7 1-1210): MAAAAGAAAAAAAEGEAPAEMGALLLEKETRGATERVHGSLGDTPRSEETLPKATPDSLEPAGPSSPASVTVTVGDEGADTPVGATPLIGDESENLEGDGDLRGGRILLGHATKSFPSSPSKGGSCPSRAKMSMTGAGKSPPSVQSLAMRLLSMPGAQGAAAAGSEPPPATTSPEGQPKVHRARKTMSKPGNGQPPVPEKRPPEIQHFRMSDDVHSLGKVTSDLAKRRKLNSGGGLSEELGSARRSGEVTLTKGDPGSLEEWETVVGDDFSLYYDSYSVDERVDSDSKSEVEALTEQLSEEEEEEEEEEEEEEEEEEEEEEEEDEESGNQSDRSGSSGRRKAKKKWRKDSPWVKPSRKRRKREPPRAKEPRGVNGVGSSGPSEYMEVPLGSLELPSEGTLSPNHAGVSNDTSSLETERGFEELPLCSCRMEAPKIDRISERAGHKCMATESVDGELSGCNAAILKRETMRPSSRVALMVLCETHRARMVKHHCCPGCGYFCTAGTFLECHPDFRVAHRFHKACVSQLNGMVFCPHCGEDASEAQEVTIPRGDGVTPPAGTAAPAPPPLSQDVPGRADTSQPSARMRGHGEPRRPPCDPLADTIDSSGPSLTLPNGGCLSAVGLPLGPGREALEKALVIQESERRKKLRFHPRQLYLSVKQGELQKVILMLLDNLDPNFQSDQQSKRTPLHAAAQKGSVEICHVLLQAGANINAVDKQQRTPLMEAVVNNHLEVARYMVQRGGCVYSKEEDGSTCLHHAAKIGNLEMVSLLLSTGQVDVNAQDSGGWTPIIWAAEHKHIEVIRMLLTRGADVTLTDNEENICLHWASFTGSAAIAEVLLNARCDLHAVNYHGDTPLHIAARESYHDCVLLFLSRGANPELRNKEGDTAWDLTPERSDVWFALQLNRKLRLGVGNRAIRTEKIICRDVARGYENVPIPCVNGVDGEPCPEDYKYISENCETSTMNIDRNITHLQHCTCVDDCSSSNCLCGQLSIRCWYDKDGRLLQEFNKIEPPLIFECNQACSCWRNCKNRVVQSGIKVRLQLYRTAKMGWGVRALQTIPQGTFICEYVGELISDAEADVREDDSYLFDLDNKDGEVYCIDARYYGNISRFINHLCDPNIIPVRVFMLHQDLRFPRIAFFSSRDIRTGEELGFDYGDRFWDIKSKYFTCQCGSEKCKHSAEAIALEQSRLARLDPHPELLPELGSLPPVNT
Method: as §1, §2, §3

T1 sequence (Q99873 whole entry): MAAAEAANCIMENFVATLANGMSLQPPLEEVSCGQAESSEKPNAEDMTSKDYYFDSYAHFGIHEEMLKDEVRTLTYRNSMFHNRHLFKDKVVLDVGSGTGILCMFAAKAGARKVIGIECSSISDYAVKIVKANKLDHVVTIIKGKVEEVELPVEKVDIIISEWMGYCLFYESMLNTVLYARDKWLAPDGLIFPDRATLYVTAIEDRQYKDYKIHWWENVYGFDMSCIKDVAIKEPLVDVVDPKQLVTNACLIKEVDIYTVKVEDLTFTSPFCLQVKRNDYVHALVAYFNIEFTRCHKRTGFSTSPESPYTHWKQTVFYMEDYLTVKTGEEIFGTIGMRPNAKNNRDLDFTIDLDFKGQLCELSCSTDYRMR

## Nc1ncnc2c1ncn2[C@@H]1O[C@H](CNS(=O)(=O)c2ccc3ccccc3c2)[C@@H](O)[C@H]1O [Compound 3, N-(((2R,3S,4R,5R)-5-(6-Amino-9H-purin-9-yl)-3,4-dihydroxytetrahydrofuran-2-yl)methyl)naphthalene-2-sulfonamide]
PRMT1
  inhibition at 10 µM: 5%
SUV39H1
  inhibition at 10 µM: 11%
G9a
  inhibition at 10 µM: 11%
